The structures appear in SMILES notation.

This is an account of results in patent US20040063716A1, “Cholesterol biosynthesis inhibitors containing as the active ingredient tricyclic spiro compounds” (priority 2000, published 2004).

The subject of one assay is human plasma. As to the kind of experiment: Measurement of intrinsic coagulation time (APTT) in vitro. Type of assay: biochemical.
Details: not given
How it is done:
Activated partial thromboplastin time (APTT) is measured in the presence of the test compounds diluted at various concentrations. A test compound diluted with DMSO at various concentrations is mixed with human plasma and APTT reagent. The mixture is incubated at 37° C. for 2 minutes; calcium chloride (25 mM) is added to the mixture; and the coagulation time is thereafter measured. It should be noted that the anticoagulant activity of the test compound is described in terms of the concentration required to double the coagulation time for the case where no test compound is added.
In the case of `COCCOC(=O)C12CN(S(=O)(=O)c3ccc4cc(Cl)ccc4c3)CC(=O)N1CC1(CCN(c3ccncc3)CC1)O2` (single isomer, unassigned; (-)) [Example 42, (−)-1,4-Diaza-4-(6-chloronaphthalen-2-ylsulfonyl)-6-(2-methoxyethoxycarbonyl)-7-oxa-1′-(4-pyridyl)spiro[bicyclo[4.3.0]nonane-8,4′-piperidin]-2-one], the “Concentration required to double coagulation time” value (“Concentration required” for short) came to 0.20 µM.
In the case of `COCC12CN(S(=O)(=O)c3ccc4ccccc4c3)CC(=O)N1CC1(CCN(c3ccncc3)CC1)O2` (stereo not shown) [Example 6, 1,4-Diaza-6-(methoxymethyl)-4-(2-naphthalenesulfonyl)-7-oxa-1′-(4-pyridyl)spiro[bicyclo[4.3.0]nonane-8,4′-piperidin]-2-one], the “Concentration required” value was determined as 0.99 µM.
Same read-out and setting: under `O=C1CN(S(=O)(=O)c2ccc3cc(Cl)ccc3c2)CC2OC3(CCN(c4ccncc4)CC3)CN12` (stereo not shown) [Example 9, 1,4-Diaza-4-(6-chloronaphthalen-2-ylsulfonyl)-7-oxa-1′-(4-pyridyl)spiro[bicyclo[4.3.0]nonane-8,4′-piperidin]-2-one] stands 0.29 µM.
The same measure, in the same setting: as for `COCC12CN(S(=O)(=O)c3ccc4cc(Cl)ccc4c3)CC(=O)N1CC1(CCN(c3cc[n+](C)cc3)CC1)O2.Cc1ccc(S(=O)(=O)[O-])cc1` (stereo not shown) [Example 23, 4-[1,4-Diaza-4-(6-chloronaphthalen-2-ylsulfonyl)-6-(methoxymethyl)-7-oxa-2-oxospiro[bicyclo[4.3.0]nonane-8,4′-piperidin-1′-yl]]-1-methylpyridinium p-Toluenesulfonate], the figure is 0.62 µM; as for `CC(C)OC(=O)C12CN(S(=O)(=O)c3ccc4cc(Cl)ccc4c3)CC(=O)N1CC1(CCN(c3ccncc3)CC1)O2` (stereo not shown) [Example 29, 1,4-Diaza-4-(6-chloronaphthalen-2-ylsulfonyl)-6-(isopropoxycarbonyl)-7-oxa-1′-(4-pyridyl)spiro[bicyclo[4.3.0]nonane-8,4′-piperidin]-2-one], 0.90 µM.
For `NCC12CN(S(=O)(=O)c3ccc4cc(Cl)ccc4c3)CC(=O)N1CC1(CCN(c3ccncc3)CC1)O2` (stereo not shown) [Example 58, 6-(Aminomethyl)-1,4-diaza-4-(6-chloronaphthalen-2-ylsulfonyl)-7-oxa-1′-(4-pyridyl)spiro[bicyclo[4.3.0]nonane-8,4′-piperidin]-2-one], the “Concentration required” value amounted to 0.18 µM.
Regarding `CC12CN(S(=O)(=O)c3ccc4cc(Cl)ccc4c3)CC(=O)N1CC1(CCN(c3ccncc3)CC1)O2` (stereo not shown) [Example 69, 1,4-Diaza-4-(6-chloronaphthalen-2-ylsulfonyl)-6-methyl-7-oxa-1′-(4-pyridyl)spiro[bicyclo[4.3.0]nonane-8,4′-piperidin]-2-one], the “Concentration required” value worked out at 0.36 µM.
Take `O=C1CN(S(=O)(=O)c2cc3ccc(Cl)cc3s2)CC2NC3(CCN(c4ccncc4)CC3)CN12` (stereo not shown) [Example 275, 1,4,7-Triaza-4-(6-chlorobenzo[b]thiophen-2-ylsulfonyl)-1′-(4-pyridyl)spiro[bicyclo[4.3.0]nonane-8,4′-piperidin]-2-one]: the “Concentration required” value worked out at 0.17 µM.
Take `COCC12CN(S(=O)(=O)C3=Cc4ccc(Cl)cc4OC3)CC(=O)N1CC1(CCN(c3ccncc3)CC1)O2` (stereo not shown) [Example 388, 1,4-Diaza-4-(7-chloro-2H-benzopyran-3-sulfonyl)-6-(methoxymethyl)-7-oxa-1′-(4-pyridyl)spiro[bicyclo[4.3.0]nonane-8,4′-piperidin]-2-one]: the “Concentration required” value was determined as 0.22 µM.
As to `COCC12CN(S(=O)(=O)c3cc4ccc(Cl)cc4s3)CC(=O)N1CC1(CCN(c3ccncc3)CC1)O2` (stereo not shown) [Example 399, 1,4-Diaza-4-(6-chlorobenzo[b]thiophen-2-ylsulfonyl)-6-(methoxymethyl)-7-oxa-1′-(4-pyridyl)spiro[bicyclo[4.3.0]nonane-8,4′-piperidin]-2-one], the “Concentration required” value came out at 0.18 µM.
Take `COCC12CN(S(=O)(=O)c3cc4ccc(Cl)cc4s3)CC(=O)N1CC1(CCN(c3ccncc3)CC1)N2` (stereo not shown) [Example 461, 1,4,7-Triaza-4-(6-chlorobenzo[b]thiophen-2-ylsulfonyl)-6-(methoxymethyl)-1′-(4-pyridyl)spiro[bicyclo[4.3.0]nonane-8,4′-piperidin]-2-one]: the “Concentration required” value was 0.16 µM.
Still for that read-out and setting: under `COCC12CN(S(=O)(=O)c3cc4cc(Cl)ccc4o3)CC(=O)N1CC1(CCN(c3ccncc3)CC1)N2` (stereo not shown) [Example 471, 1,4,7-Triaza-4-(5-chlorobenzo[b]furan-2-ylsulfonyl)-6-(methoxymethyl)-1′-(4-pyridyl)spiro[bicyclo[4.3.0]nonane-8,4′-piperidin]-2-one] stands 0.27 µM; under `COCC12CN(S(=O)(=O)c3cc4cc(Cl)ccc4o3)CC(=O)N1CC1(CCN(c3ccncc3)CC1)N2C` (stereo not shown) [Example 533, 1,4,7-Triaza-4-(5-chlorobenzo[b]furan-2-ylsulfonyl)-6-(methoxymethyl)-7-methyl-1′-(4-pyridyl)spiro[bicyclo[4.3.0]nonane-8,4′-piperidin]-2-one], 0.35 µM.
On to `O=C1CN(S(=O)(=O)C=Cc2ccc(Cl)s2)CC2OC3(CCN(c4ccncc4)CC3)CN12` (stereo not shown) [Example 600, 1,4-Diaza-4-[2-(5-chlorothiophen-2-yl)ethenesulfonyl]-7-oxa-1′-(4-pyridyl)spiro[bicyclo[4.3.0]nonane-8,4′-piperidin]-2-one], for which the “Concentration required” value is 0.22 µM.
Same read-out and setting: as for `COCC12CN(S(=O)(=O)C=Cc3ccc(Cl)s3)CC(=O)N1CC1(CCN(c3ccncc3)CC1)N2C` (stereo not shown) [Example 740, 1,4,7-Triaza-4-[2-(5-chlorothiophen-2-yl)ethenesulfonyl]-6-(methoxymethyl)-7-methyl-1′-(4-pyridyl)spiro[bicyclo[4.3.0]nonane-8,4′-piperidin]-2-one], the figure is 0.18 µM.

The target in another assay is T1, human FXa (Homo sapiens, UniProt P00742).
T1 construct: purchased Enzyme Research Laboratories, Inc
T1 sequence (P00742 235-488 limits assumed): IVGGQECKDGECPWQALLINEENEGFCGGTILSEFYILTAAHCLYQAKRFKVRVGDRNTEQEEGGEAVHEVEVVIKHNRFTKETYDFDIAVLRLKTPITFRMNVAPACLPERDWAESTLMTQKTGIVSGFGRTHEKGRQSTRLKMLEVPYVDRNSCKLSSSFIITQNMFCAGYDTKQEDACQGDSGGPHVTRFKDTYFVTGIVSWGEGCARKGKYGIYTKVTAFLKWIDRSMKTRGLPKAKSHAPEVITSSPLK
T1 sequence (P00742 41-179 partner limits assumed): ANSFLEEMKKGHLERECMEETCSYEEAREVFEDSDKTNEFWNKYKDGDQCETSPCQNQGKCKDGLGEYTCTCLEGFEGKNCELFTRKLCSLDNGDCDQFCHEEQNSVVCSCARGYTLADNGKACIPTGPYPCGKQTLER
As to the kind of experiment: Measurement of human FXa inhibitory action (chromogenic substrate S-2222). Type of assay: biochemical. The note with it: human FXa 0.019 U/ml, S-2222 0.4 mM, 37° C., pH 7.5. As to the method: In vitro FXa inhibitory activity is measured in accordance with the method of Kettner et al. (Journal of Biological Chemistry, vol. 265, pages 18289 to 18297, 1990). To be more specific, human FXa (product of Enzyme Research Laboratories, Inc., 0.019 U/ml) is mixed with a test compound diluted with dimethylsulfoxide (DMSO) at various concentrations and a synthetic substrate S-2222 (Chromogenix AB, 0.4 mM). The mixtures are incubated at 37° C. in Tris-hydrochloric acid buffer (pH 7.5) while the absorbance at 405 nm is measured continuously. To calculate the FXa inhibitory activity of the test compound, the initial reaction velocity is compared with the value for a control containing no test compound. It should be noted that the FXa inhibitory activity of the test compound is generally indicated as IC50.
Broadly, the IC50 is the point on the concentration scale where inhibition reaches its midpoint. Compound `COCC12CN(S(=O)(=O)c3ccc4cc(Cl)ccc4c3)CC(=O)N1CC1(CCN(c3ccncc3)CC1)O2` (stereo not shown) [Example 1, 1,4-Diaza-4-(6-chloronaphthalen-2-ylsulfonyl)-6-(methoxymethyl)-7-oxa-1′-(4-pyridyl)spiro[bicyclo[4.3.0]nonane-8,4′-piperidin]-2-one] gave a half-inhibitory concentration (IC50) of 3.2 nM.
On the same count and under the same terms, under `O=C1CN(S(=O)(=O)c2ccc3cc(Cl)ccc3c2)CC2OC3(CCN(c4ccncn4)CC3)CN12` (stereo not shown) [Example 10, 1,4-Diaza-4-(6-chloronaphthalen-2-ylsulfonyl)-7-oxa-1′-(4-pyrimidinyl)spiro[bicyclo[4.3.0]nonane-8,4′-piperidin]-2-one] stands 5.4 nM; under `CCOC(=O)C12CN(S(=O)(=O)c3ccc4cc(Cl)ccc4c3)CC(=O)N1CC1(CCN(c3ccncc3)CC1)O2` (stereo not shown) [Example 25, 1,4-Diaza-4-(6-chloronaphthalen-2-ylsulfonyl)-6-(ethoxycarbonyl)-7-oxa-1′-(4-pyridyl)spiro[bicyclo[4.3.0]nonane-8,4′-piperidin]-2-one], 1.5 nM.
Compound `O=C1CN(S(=O)(=O)c2ccc3cc(Cl)ccc3c2)CC2(C(=O)O)OC3(CCN(c4ccncc4)CC3)CN12` (stereo not shown) [Example 50, Ammonium 1,4-Diaza-4-(6-chloronaphthalen-2-ylsulfonyl)-7-oxa-2-oxo-1′-(4-pyridyl)spiro[bicyclo[4.3.0]nonane-8,4′-piperidine]-6-carboxylate] yielded a concentration for half-maximal inhibition (IC50) of 1.9 nM.
